Assays:
[1] = biological target: T1, CtUba4 AD (Thermochaetoides thermophila, UniProt G0SC54); assay: thermal shift assay (SYPRO Orange); assay type: binding; conditions: 1 mM AMP, 2 mM MgCl2, 2 mM DTT, pH 7.5
T1 construct: gene uba4; adenylation domain aa 1-290, E. coli, His6-GST tag TEV-cleaved, dimer

[2] = biological target: T2, CtUba4 (full length) (Thermochaetoides thermophila, UniProt G0SC54); assay: thermal shift assay (SYPRO Orange); assay type: binding; conditions: 1 mM AMP, 2 mM MgCl2, 2 mM DTT, pH 7.5
T2 construct: gene uba4; full length aa 1-444, codon-optimised, E. coli BL21(DE3) pRARE, His6 or His6-GST tag TEV-cleaved, homodimer

[3] = biological target: T3, CtUba4-CtUrm1 (Thermochaetoides thermophila, UniProt G0SC54, N307A/M308A); assay: pyrophosphate release (fluorometric kit); Malachite Green phosphate; assay type: biochemical; conditions: 20 μM ATP, CtUrm1 7.5 μM, 0.5 mM MgCl2, pH 6.0, 37 °C
T3 construct: gene uba4; full-length CtUba4 (1-444) plus CtUrm1, both from E. coli, tags TEV-cleaved (GST kept on CtUrm1 in pull-down); with Ubiquitin-related modifier 1
T3 sequence (G0SC54 entry or part of it N307A/M308A, one chain of several): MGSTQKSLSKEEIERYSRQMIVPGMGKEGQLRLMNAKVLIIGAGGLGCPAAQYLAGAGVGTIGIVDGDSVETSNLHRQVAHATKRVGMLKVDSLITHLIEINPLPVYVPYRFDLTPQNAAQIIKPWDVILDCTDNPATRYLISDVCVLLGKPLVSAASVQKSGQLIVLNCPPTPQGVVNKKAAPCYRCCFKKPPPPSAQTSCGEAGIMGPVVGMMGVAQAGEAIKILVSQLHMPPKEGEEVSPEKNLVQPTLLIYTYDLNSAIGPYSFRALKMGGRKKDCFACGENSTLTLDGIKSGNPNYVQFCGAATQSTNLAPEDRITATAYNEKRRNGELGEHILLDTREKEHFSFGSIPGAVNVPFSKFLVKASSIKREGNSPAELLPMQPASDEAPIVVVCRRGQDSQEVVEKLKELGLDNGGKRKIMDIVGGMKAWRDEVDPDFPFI

[4] = biological target: T4, CtUba4-CtUrm1 (Thermochaetoides thermophila, UniProt G0SC54); assay: as above; assay type: biochemical; conditions: 20 μM ATP, CtUrm1 7.5 μM, 0.5 mM MgCl2, pH 6.0, 37 °C
T4 construct: gene uba4; full-length CtUba4 (1-444) plus CtUrm1, both from E. coli, tags TEV-cleaved (GST kept on CtUrm1 in pull-down); with Ubiquitin-related modifier 1

[5] = biological target: T5, ADlinker 1-321 (with CtUrm1) (Thermochaetoides thermophila, UniProt G0SC54); assay: as above; assay type: biochemical; conditions: 20 μM ATP, CtUrm1 7.5 μM, 0.5 mM MgCl2, pH 6.0, 37 °C
T5 construct: gene uba4; adenylation domain plus complete linker, aa 1-321, E. coli; assayed with CtUrm1; with Ubiquitin-related modifier 1
T5 sequence (G0SC54 1-321): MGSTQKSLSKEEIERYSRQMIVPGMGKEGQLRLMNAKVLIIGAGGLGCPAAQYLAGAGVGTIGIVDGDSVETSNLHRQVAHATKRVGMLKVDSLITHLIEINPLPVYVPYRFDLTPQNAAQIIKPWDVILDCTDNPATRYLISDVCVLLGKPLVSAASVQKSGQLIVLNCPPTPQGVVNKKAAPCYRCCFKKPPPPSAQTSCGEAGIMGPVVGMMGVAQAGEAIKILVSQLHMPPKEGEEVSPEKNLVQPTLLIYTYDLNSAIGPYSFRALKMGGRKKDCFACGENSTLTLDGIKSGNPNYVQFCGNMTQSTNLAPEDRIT
T5 sequence (G0SE11 1-110 partner): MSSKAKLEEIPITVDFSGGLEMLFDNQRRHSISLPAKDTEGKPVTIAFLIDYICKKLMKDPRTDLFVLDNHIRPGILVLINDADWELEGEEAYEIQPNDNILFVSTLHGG

[6] = biological target: T4, CtUba4-CtUrm1; assay: GST pull-down of CtUba4 with GST-CtUrm1 (nucleotide-stabilised complex); assay type: binding; conditions: 1 mM nucleotide, 2 mM MgCl2, pH 6.0, 37 °C
[7] = biological target: the molecule itself; assay: crystal structure; apo full-length CtUba4, no nucleotide; 50 mM HEPES pH 6.9-7.0, PEG 4000, 21°C; 2.2 Å
[8] = biological target: the molecule itself; assay: crystal structure; CtUba4 C202K, CtUrm1 and ATP (1.00:1.25:2.25) incubated in 100 mM MES pH 6.0, 100 mM NaCl, 2 mM MgCl2 at 37°C for 30 min, complex isolated on Superdex 200 Increase; crystals in 0.1 M HEPES pH 7.5, 20% PEG 3350; 3.15 Å
[9] = biological target: the molecule itself; assay: SEC + SEC-MALS; SEC profiles and static light scattering (RALS/LALS) after Superdex 75 10/300 GL; 1 mg/ml; 20 mM Tris pH 7.5, 150 mM NaCl, 1 mM DTT

In the case of `Nc1ncnc2c1ncn2[C@@H]1O[C@H](COP(=O)(O)O)[C@@H](O)[C@H]1O` [AMP], the melting temperature [1] is reported as “AMP increased the thermal stability of full‐length Uba4 and the AD alone” and the melting temperature [2] is reported as “AMP increased the thermal stability of full‐length Uba4 and the AD alone”.

In the case of `Nc1ncnc2c1ncn2[C@@H]1O[C@H](COP(=O)(O)OP(=O)(O)OP(=O)(O)O)[C@@H](O)[C@H]1O` [ATP], the “pyrophosphate release (fluorometric kit); Malachite Green phosphate” value (“pyrophosphate release (fluorometric kit)” below) [3] is reported as “mutations of the linker residues Asn307 and Met308”, the “pyrophosphate release (fluorometric kit)” value [4] is reported as “ATP hydrolysis capacity of CtUba4 WT and mutants in the presence of CtUrm1” and the “pyrophosphate release (fluorometric kit)” value [5] is reported as “it stimulates the ATP hydrolysis activity of the AD in the presence of Urm1”.

For `Nc1ncnc2c1ncn2[C@@H]1O[C@H](COP(=O)(O)OP(=O)(O)NP(=O)(O)O)[C@@H](O)[C@H]1O` [AMP-PNP], the “GST pull-down of CtUba4 with GST-CtUrm1 (nucleotide-stabilised complex)” value [6] was “complex is stabilized most efficiently in the presence of ATP and AMP‐PNP”.

B1: Chaetomium thermophilum Uba4 (ubiquitin-like protein activator 4), full length, wild type (enzyme, UniProt G0SC54 1-444, looked up)
chain: MGSTQKSLSKEEIERYSRQMIVPGMGKEGQLRLMNAKVLIIGAGGLGCPAAQYLAGAGVGTIGIVDGDSVETSNLHRQVAHATKRVGMLKVDSLITHLIEINPLPVYVPYRFDLTPQNAAQIIKPWDVILDCTDNPATRYLISDVCVLLGKPLVSAASVQKSGQLIVLNCPPTPQGVVNKKAAPCYRCCFKKPPPPSAQTSCGEAGIMGPVVGMMGVAQAGEAIKILVSQLHMPPKEGEEVSPEKNLVQPTLLIYTYDLNSAIGPYSFRALKMGGRKKDCFACGENSTLTLDGIKSGNPNYVQFCGNMTQSTNLAPEDRITATAYNEKRRNGELGEHILLDTREKEHFSFGSIPGAVNVPFSKFLVKASSIKREGNSPAELLPMQPASDEAPIVVVCRRGQDSQEVVEKLKELGLDNGGKRKIMDIVGGMKAWRDEVDPDFPFI
notes: Uba4 of Chaetomium thermophilum, UniProt G0SC54, full length aa 1-444; Expressed from pETM30 (N-terminal His6 and GST) and pETM11 (N-terminal His6); tags cleaved with TEV; Codon-optimised gene; also called CtUba4; CtUba4 FL; source: E. coli BL21(DE3) pRARE, purified (Ni-NTA, TEV cleavage, second Ni-NTA, SEC Superdex 200); not shown: His6, N-terminal, cleaved
For B1, the “stoichiometry N” value [7] was 2.

B2: CtUba4 C202K, full length (enzyme, Chaetomium thermophilum, UniProt G0SC54 1-444, looked up)
chain: MGSTQKSLSKEEIERYSRQMIVPGMGKEGQLRLMNAKVLIIGAGGLGCPAAQYLAGAGVGTIGIVDGDSVETSNLHRQVAHATKRVGMLKVDSLITHLIEINPLPVYVPYRFDLTPQNAAQIIKPWDVILDCTDNPATRYLISDVCVLLGKPLVSAASVQKSGQLIVLNCPPTPQGVVNKKAAPCYRCCFKKPPPPSAQTSKGEAGIMGPVVGMMGVAQAGEAIKILVSQLHMPPKEGEEVSPEKNLVQPTLLIYTYDLNSAIGPYSFRALKMGGRKKDCFACGENSTLTLDGIKSGNPNYVQFCGNMTQSTNLAPEDRITATAYNEKRRNGELGEHILLDTREKEHFSFGSIPGAVNVPFSKFLVKASSIKREGNSPAELLPMQPASDEAPIVVVCRRGQDSQEVVEKLKELGLDNGGKRKIMDIVGGMKAWRDEVDPDFPFI
notes: Uba4 of Chaetomium thermophilum, UniProt G0SC54, full length aa 1-444 with C202K; With Urm1 and ATP the epsilon-amino group of Lys202 forms a non-hydrolysable iso-peptide bond with Gly111 of Urm1; The RHD is present in the crystals but has no density; source: E. coli BL21(DE3) pRARE, purified (Ni-NTA, TEV cleavage, SEC Superdex 200); not shown: His6, N-terminal, cleaved
B2 was tested, and the “stoichiometry N” value [8] was 2.

B3: CtUba4 adenylation domain (1-290) (domain or fragment, Chaetomium thermophilum, UniProt G0SC54 1-290, looked up)
chain: MGSTQKSLSKEEIERYSRQMIVPGMGKEGQLRLMNAKVLIIGAGGLGCPAAQYLAGAGVGTIGIVDGDSVETSNLHRQVAHATKRVGMLKVDSLITHLIEINPLPVYVPYRFDLTPQNAAQIIKPWDVILDCTDNPATRYLISDVCVLLGKPLVSAASVQKSGQLIVLNCPPTPQGVVNKKAAPCYRCCFKKPPPPSAQTSCGEAGIMGPVVGMMGVAQAGEAIKILVSQLHMPPKEGEEVSPEKNLVQPTLLIYTYDLNSAIGPYSFRALKMGGRKKDCFACGENSTLT
notes: Uba4 of Chaetomium thermophilum, UniProt G0SC54, adenylation domain residues 1-290; source: E. coli BL21(DE3) pRARE, purified (Ni-NTA, TEV cleavage, SEC); not shown: His6, N-terminal, cleaved; GST, N-terminal, cleaved
In the case of B3, the “stoichiometry N” value [9] is reported as 2.

B4: CtUba4 rhodanese-like domain (319-444) (domain or fragment, Chaetomium thermophilum, UniProt G0SC54 319-444, looked up)
chain: RITATAYNEKRRNGELGEHILLDTREKEHFSFGSIPGAVNVPFSKFLVKASSIKREGNSPAELLPMQPASDEAPIVVVCRRGQDSQEVVEKLKELGLDNGGKRKIMDIVGGMKAWRDEVDPDFPFI
notes: Uba4 of Chaetomium thermophilum, UniProt G0SC54, rhodanese-like domain residues 319-444; also called CtUba4 RHD; RHD; source: E. coli BL21(DE3) pRARE, purified (Ni-NTA, TEV cleavage, SEC Superdex 75); not shown: His6, N-terminal, cleaved; GST, N-terminal, cleaved
For B4, the “stoichiometry N” value [9] was 2.
